Legend:
[1] = target: T1, human Werner helicase (WRN-BV08, amino acids 517-1235 with L1074F point mutation) (Homo sapiens, UniProt Q14191, L1074F); experiment: ADP-Glo WRN helicase ATPase inhibition assay; type: biochemical; details: 0.15 nM WRN, 5 μM ATP, 0.1 nM DNA duplex; 15 minutes preincubation, 60 minutes at 25° C.; read-out: ADP-Glo_hWRN_IC50
T1 construct: [pFastBac1-WRN-(517-1235 L1074F)-TEV-8His]; 8xHis (C, cleaved yes); TEV cleavage site (ENLYFQG) (C); made in house; host or cells: Sf9 insect cells (baculovirus, pFastBac)
T1 sequence (Q14191 with tags, fused parts or gaps L1074F): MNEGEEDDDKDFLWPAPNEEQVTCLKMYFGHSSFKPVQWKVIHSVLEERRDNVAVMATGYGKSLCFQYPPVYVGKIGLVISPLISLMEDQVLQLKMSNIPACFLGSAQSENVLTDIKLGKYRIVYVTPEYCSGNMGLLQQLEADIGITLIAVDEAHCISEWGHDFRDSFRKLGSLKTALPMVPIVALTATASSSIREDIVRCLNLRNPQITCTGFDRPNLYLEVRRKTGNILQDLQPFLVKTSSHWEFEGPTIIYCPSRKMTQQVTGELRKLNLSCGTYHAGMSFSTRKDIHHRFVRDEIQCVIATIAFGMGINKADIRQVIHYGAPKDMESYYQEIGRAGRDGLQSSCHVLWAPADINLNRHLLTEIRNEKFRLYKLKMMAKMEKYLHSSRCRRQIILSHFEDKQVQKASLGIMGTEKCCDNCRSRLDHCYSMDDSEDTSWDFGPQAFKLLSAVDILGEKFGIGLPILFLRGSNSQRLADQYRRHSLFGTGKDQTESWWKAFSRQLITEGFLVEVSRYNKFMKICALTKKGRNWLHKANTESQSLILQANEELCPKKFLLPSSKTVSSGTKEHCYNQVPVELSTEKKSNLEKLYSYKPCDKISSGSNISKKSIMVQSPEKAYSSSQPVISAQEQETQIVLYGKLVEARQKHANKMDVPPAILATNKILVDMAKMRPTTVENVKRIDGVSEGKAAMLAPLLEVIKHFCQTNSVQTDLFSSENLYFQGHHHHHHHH
From the text: Bovine skin gelatin (BSG), dimethyl sulfoxide (DMSO), Pluronic F-127 and tris(2-carboxyethyl)phosphine hydrochloride solution (TCEP) were purchased from Sigma-Aldrich (St. Louis, MO) at the highest level of purity possible. Bicine buffer solution was purchased from Alfa Aesar (Tewksbury, MA) and compound NSC-617145 was purchased from Tocris (Minneapolis, MN). DNA duplex was synthesized at BGI (Shenzhen, China) and was composed of strand 1 with the sequence 5′-[…]-3′ (SEQ ID NO.: 1) and strand 2 with the sequence 5′-[…]-3′ (SEQ ID NO.: 2). DNA strands were annealed by heating to 95° C. for 5 minutes followed by slow cooling to room temperature. Compounds in 100% DMSO (0.1 μl) were spotted into a 384-well white polystyrene Optiplate-384 (Perkin Elmer; Waltham, MA) assay plate using a LabCyte Echo 550 (Agilent; Santa Clara, CA). DMSO (0.1 μl) was added to columns 12, rows A-H and column 24, rows I-P for the maximum signal control. Compound NSC-617145 (0.1 μl) was added to columns 12, rows I-P and 24, rows A-H for the minimum signal control (100% inhibition). Compounds/DMSO were preincubated for 15 minutes at 25° C. with 5 μl 2×WRN (BV08), prepared as described below, in assay buffer containing 20 mM Bicine (pH=7.5), 1 mM MgCl2, 10 mM KCl, 0.1% Pluronic F-127, 0.005% BSG, 1 mM TCEP. The reaction was initiated by the addition of 5 μl 2× substrate mixture in assay buffer and incubated for 60 minutes at 25° C. The final concentrations of the assay components were 0.15 nM WRN, 5 μM ATP, and 0.1 nM DNA duplex. The final DMSO concentration was 1% and the reference compound concentration (NSC-617145) used for the minimal signal control was 20 μM. The reaction was stopped by the addition of the ADP-Glo Kit components (Promega; Madison, WI) as directed and the relative luminescence units (RLU) were read on an Envision 2104 (Perkin Elmer; Waltham, MA). % inhibition calculation:
Where RLU=relative luminescence units, sample=signal in sample well, and MIN and MAX are the respective minimum and maximum signal controls.
Four-Parameter IC50 Fit Equation:
Where top and bottom are normally allowed to float but may be fixed at 100 or 0 respectively in a 3-parameter fit. Y is the % inhibition and X is the compound concentration.
Molecular Biology and virus production. The DNA encoding human Werner helicase (Uniprot Q14191, amino acids 517-1235 with L1074F point mutation) was generated with codon-optimization for E. coli expression and subcloned into the pFastBac vector with a TEV cleavable 8×His tag (SEQ ID NO: 5) (WRN-BV08). The baculovirus from the expression plasmid WRN-BV08 was generated from transfection and amplification following the manufacturer's instructions.
Sf9 cells grown in SF900II media were infected with 1:200 WRN-BV08 P2 virus and incubated for protein expression for 72 h at 27° C. The WRN protein was purified using the following protocol. The cell pellets were thawed and resuspended in buffer A (50 mM Tris, pH 7.5, 500 mM NaCl, 1 mM TCEP, 10% Glycerol) supplemented with 0.5% CHAPS, 1 mM PMSF, […] Leupeptin, 1 μg/ml Pepstatin, and the Pierce Universal Nuclease and cocktail tablet. Cleared lysates were loaded onto a Ni Sepharose™ excel column and washed with buffer A and bound protein was eluted with buffer A supplemented with 300 mM imidazole. The eluted protein was dialyzed against buffer A and digested by His-tagged TEV (1:5 ratio) overnight at 4° C. ZnCl2 was added into the sample at final 15 μM before loading onto a second Ni Sepharose™ excel column. Untagged WRN protein was eluted from the column with buffer A supplemented with 20 mM imidazole, dialyzed overnight into buffer B (50 mM Tris, pH 7.5, 1 mM TCEP, 10% Glycerol) supplemented with 150 mM NaCl and loaded onto a Heparin column. Proteins were eluted with a step gradient of buffer B supplemented with 150 mM, 200 mM, 300 mM and 500 mM NaCl. […]

[2] = test system: p21 induction in HCT 116 cells; experiment: p21 induction in cells (in-cell western, p21/GAPDH ratio); type: cell-based; details: Homo sapiens; HCT 116 colon carcinoma cell line, 24 h compound incubation; percent activation vs internal reference WRN inhibitor; read-out: P21_EC50
Description: The colon carcinoma cell line HCT 116 was obtained from ATCC and cultured in growth medium consisting of Mccoy's 5A Medium (Gibco 16600108) supplemented with […] (Transgene FS201-02) and 100 units/mL penicillin-streptomycin (Gibco 15140122) and maintained at 37° C. under […]. On the day of seeding, 2,000 cells in 30 μL of culture media were plated per well to Poly-D-Lysine 384 Well Black Clear Plates (Biocoat 356663) and incubated overnight at 37° C. under 5% CO2. The following day, compounds were serially diluted in DMSO for a total of 11 test concentrations. The typical starting concentration of cpds was 10 μM with 2-fold dilutions. Next, 150 nL of diluted compound was added in duplicate to the assay plate, using an Echo 655 (Labcyte). The plate was centrifuged at 500 RPM for 1 min and then incubated at 37° C. under 5% CO2 for 24 h. After 24 h, medium was removed, and cells were fixed by adding 40 µL of 4% paraformaldehyde solution to each well and incubated for 20 min at room temperature. The plate was then washed 4 times with 100 μL per well of wash buffer (PBS with 0.1% Tween-20) using a microplate washer. Next, 30 μL of ice-cold methanol was added to each well and the plate was incubated at −20° C. for 10 min. The plate was washed 4 times with 100 μL per well of wash buffer by a microplate washer, then 30 μL per well of blocking buffer (Intercept PBS blocking buffer (LI-COR 927-70001) with 0.05% Tween-20) was added and the plate was incubated at room temperature with shaking for 2 h. Next, to each test well, 20 μL of primary antibody solution (p21 Waf1/CIP (12D1) Rabbit mAb (Cell Signaling Technologies 2947) diluted 1:1000 and GAPDH (D4C6R) Mouse mAb (Cell Signaling Technologies 97166) diluted 1:2000 in blocking buffer) was added and the plate was placed at 4° C., overnight. The following day, the plate was washed 5 times with 100 μL per well of wash buffer using a microplate washer for 5 min. 20 μL per well of secondary antibody (IRDye 680CW Goat anti-Mouse IgG (H+L) (LI-COR 926-68070) diluted 1: 2000 in Blocking Buffer and IRDye 800CW Goat anti-Rabbit IgG (H+L) (LI-COR 926-32211) diluted 1: 2000 in Blocking Buffer) was then added and the plate was stored for 2 h in the dark at room temperature with shaking. The plate was then washed 4 times with 100 μL per well of wash buffer again using a microplate washer. Finally, the p21 signal and the GAPDH signal were quantified using a LI-COR Odyssey CLx Imager machine reading at 800 nm and 700 nm, respectively. Each plate contained DMSO control (low control) and an internal reference WRN inhibitor (high control) respectively. For quantitation, the 800 nm/700 nm ratio was calculated for each well to give fold p21 induction and then percent activation for each compound well was calculated as follows (100×(ratio cpd well-ratio low control)/(ratio high control−ratio low control)). EC50 values for each compound were generated after non-linear regression curve fitting using commercially available software.

| IC50 [1] | EC50 [2] | SMILES |
| --- | --- | --- |
| ≤ 5 nM | ≤ 500 nM | Cc1cnc2c(n1)c(=O)c(N1CCN(C(=O)c3ncnc(C)c3O)[C@H]3CC[C@@H]31)c1n2[C@H](C(=O)Nc2ccc(C(F)(F)F)cc2Cl)C[C@H]1C (single isomer, unassigned) [Compound I-11] |
| > 500 nM | > 5000 nM | Cc1cnc2c(n1)c(=O)c(N1CCN(C(=O)c3ncnc(C)c3O)[C@H]3CC[C@@H]31)c1n2[C@@H](C(=O)Nc2ccc(C(F)(F)F)cc2Cl)C[C@@H]1C (single isomer, unassigned) [Compound I-12] |
| 5 to 50 nM | ≤ 500 nM | COc1cc(-n2nc3c(=O)c(N4CCN(C(=O)c5ncnc(C)c5O)[C@H]5CC[C@@H]54)c4n(c3n2)[C@@H](C(=O)Nc2ccc(C(F)(F)F)cc2Cl)C[C@@H]4C)ccn1 (single isomer, unassigned) [Compound I-14] |
| ≤ 5 nM | ≤ 500 nM | COc1cc(-n2nc3c(=O)c(N4CCN(C(=O)c5ncnc(C)c5O)[C@H]5CC[C@@H]54)c4n(c3n2)[C@@H](C(=O)Nc2ccc(C(F)(F)F)cc2F)C[C@@H]4C)ccn1 (single isomer, unassigned) [Compound I-15] |
| 100 to 500 nM | 500 to 2000 nM | COc1cc(-n2nc3c(=O)c(N4CCN(C(=O)c5ncnc(C)c5O)[C@H]5CC[C@@H]54)c4n(c3n2)[C@H](C(=O)Nc2ccc(C(F)(F)F)cc2F)C[C@H]4C)ccn1 (single isomer, unassigned) [Compound I-16] |
| ≤ 5 nM | ≤ 500 nM | Cc1nc2c(=O)c(N3CCN(C(=O)c4ncnc(C)c4O)[C@H]4CC[C@@H]43)c3n(c2nc1C)[C@@H](C(=O)Nc1ccc(C(F)(F)F)cc1Cl)C[C@@H]3C (single isomer, unassigned) [Compound I-17] |
| ≤ 5 nM | ≤ 500 nM | Cc1nc2c(=O)c(N3CCN(C(=O)c4ncnc(C)c4O)[C@H]4CC[C@@H]43)c3n(c2nc1C)[C@H](C(=O)Nc1ccc(C(F)(F)F)cc1Cl)C[C@@H]3C (single isomer, unassigned) [Compound I-18] |
| 50 to 100 nM | 500 to 2000 nM | Cc1nc2c(=O)c(N3CCN(C(=O)c4ncnc(C)c4O)[C@H]4CC[C@@H]43)c3n(c2nc1C)[C@@H](C(=O)Nc1ccc(C(F)(F)F)cc1Cl)C[C@H]3C (single isomer, unassigned) [Compound I-19] |
| > 500 nM | > 5000 nM | Cc1nc2c(=O)c(N3CCN(C(=O)c4ncnc(C)c4O)[C@H]4CC[C@@H]43)c3n(c2nc1C)[C@H](C(=O)Nc1ccc(C(F)(F)F)cc1Cl)C[C@H]3C (single isomer, unassigned) [Compound I-20] |
| ≤ 5 nM | ≤ 500 nM | Cc1ncnc(C(=O)N2CCN(c3c4n(c5nn(C6CC6)nc5c3=O)[C@@H](C(=O)Nc3ccc(C(F)(F)F)cc3Cl)C[C@H]4C)[C@H]3CC[C@@H]32)c1O (single isomer, unassigned) [Compound I-21] |
| 100 to 500 nM | > 5000 nM | Cc1ncnc(C(=O)N2CCN(c3c4n(c5nn(C6CC6)nc5c3=O)[C@H](C(=O)Nc3ccc(C(F)(F)F)cc3Cl)C[C@@H]4C)[C@H]3CC[C@@H]32)c1O (single isomer, unassigned) [Compound I-22] |
| ≤ 5 nM | ≤ 500 nM | Cc1ncnc(C(=O)N2CCN(c3c4n(c5nn(C6=CCOCC6)nc5c3=O)[C@@H](C(=O)Nc3ccc(C(F)(F)F)cc3Cl)C[C@H]4C)[C@H]3CC[C@@H]32)c1O (single isomer, unassigned) [Compound I-23] |
| > 500 nM | > 5000 nM | Cc1ncnc(C(=O)N2CCN(c3c4n(c5nn(C6=CCOCC6)nc5c3=O)[C@H](C(=O)Nc3ccc(C(F)(F)F)cc3Cl)C[C@@H]4C)[C@H]3CC[C@@H]32)c1O (single isomer, unassigned) [Compound I-24] |
| > 500 nM | > 5000 nM | Cc1ncnc(C(=O)N2CCN(c3c4n(c5nn(C6=CCOCC6)nc5c3=O)[C@H](C(=O)Nc3ccc(C(F)(F)F)cc3Cl)C[C@H]4C)[C@H]3CC[C@@H]32)c1O (single isomer, unassigned) [Compound I-25] |
